# Assay results reported in patent US20120010075A1 (priority 2009, published 2012).
# Where two headings read alike, the source gives them in different places.
# How the values were obtained:
# [1] = test system: Phytophthora infestans; type: in vivo, Phytophthora infestans on tomato; details: Late blight, 160 μM
# [2] = test system: Leptosphaeria nodorum (LEPTNO); assay: In vitro fungitoxicity of hydrazones with and without copper towards Leptosphaeria nodorum (Example 26); type: cell-based; details: CuCl2 10 μM alone, no test compound; copper-plus versus copper-minus medium across experiments
# [3] = test system: Phytophthora infestans; type: in vivo, Phytophthora infestans on tomato (Outdoor Girl); details: no hydrazone
# [4] = test system: Phytophthora capsici; assay: In vitro fungitoxicity of hydrazones with and without copper towards Phytophthora capsici (Example 28, Table 3); type: cell-based; details: CuCl2, 50 μM, no test compound, across experiments
# [5] = test system: Phytophthora capsici; assay: Effect of copper on fungitoxicity of metal-hydrazone complexes towards Phytophthora capsici (Example 34, Table 10); type: cell-based; details: CuCl2, 50 μM, no test compound, across experiments
# [6] = test system: Leptosphaeria nodorum (LEPTNO); assay: Effect of copper on fungitoxicity of metal-hydrazone complexes towards Leptosphaeria nodorum (Example 33, Table 9); type: cell-based; details: CuCl2, 10 μM, no test compound, across experiments
# [7] = test system: Septoria tritici isolate USA-184; assay: In vitro fungitoxicity of hydrazones with and without copper towards Septoria tritici (Example 30, Table 5); type: cell-based; details: no test compound
# [8] = test system: Phytophthora capsici; assay: Fungitoxicity of copper-hydrazone mixtures of different ratios towards Phytophthora capsici (Example 36, Table 12); type: cell-based
# Method: In vitro fungitoxicity assays against Phytophthora capsici were conducted using the copper-minus AS medium described in Example 28. Mixtures containing hydrazone compound 16 at 200 nM and CuCl2.2H2O at 0.2 μM (1:1 molar ratio), 0.8 μM (1:4 ratio), 3.2 μM (1:16 ratio), 12.5 μM (1:62.5 ratio), 50 μM (1:200 ratio) and 200 μM (1:1000 ratio) were prepared in copper-minus AS medium. Two-fold dilution series of these mixtures were then prepared in 100 μL aliquots of copper-minus AS medium in flat-bottomed 96-well microtiter plates. A suspension of P. capsici zoospores in Chelex-treated water at 5×10^4 spores per mL was prepared as in Example 28. Microtiter plates were inoculated with 100 μL of the spore suspension and incubated at 25° C. for 48 h before assessing fungal growth by measuring light scattering in a NepheloStar plate reader.
# (§1) Growth inhibition was determined by comparing growth in the presence of copper-hydrazone mixture with growth in control wells lacking the copper-hydrazone mixture. EC50 values were calculated from dose-response curves, and are expressed as the amounts of hydrazone or copper in each test mixture at the rates providing 50% inhibition of growth as compared to a control lacking the copper-hydrazone mixture.
# [9] = test system: Plasmopara viticola; design: species or system Plasmopara viticola on grape; details: in vivo
# [10] = test system: Ustilago maydis; assay: In vitro fungitoxicity of hydrazones with and without copper towards Ustilago maydis (Example 29, Table 4); type: cell-based; details: CuCl2, 10 μM, no test compound
# [11] = test system: Leptosphaeria nodorum (LEPTNO); assay: Fungitoxicity of copper-hydrazone mixtures of different ratios towards Leptosphaeria nodorum (Example 35, Table 11); type: cell-based
# Method: In vitro fungitoxicity assays against LEPTNO were conducted using the copper-minus medium described in Example 26. Mixtures containing hydrazone compound 16 at 200 nM and CuCl2 at 0.2 μM (1:1 molar ratio), 0.8 μM (1:4 ratio), 12.5 μM (1:62.5 ratio) and 200 μM (1:1000 ratio) were prepared in copper-minus medium. Two-fold dilution series of these mixtures were then prepared in 100 μL aliquots of copper-minus medium in flat-bottomed 96-well microtiter plates. A suspension of LEPTNO spores in copper-minus medium at 2×10^5 spores per mL was prepared as in Example 26. Microtiter plates were inoculated with 100 μL of the spore suspension and the plates were incubated at 25° C. for 72 h before assessing fungal growth by measuring light scattering in a NepheloStar plate reader.
# as §1
# [12] = CuCl2 without hydrazone, read-out: CuCl2 EC50
# [13] = mixture with hydrazone compound 16, Hydrazone:Cu ratio 1 to 1, read-out: CuCl2 EC50 (amount of CuCl2 in mixture at EC50)
# [14] = mixture with hydrazone compound 16, Hydrazone:Cu ratio 1 to 4, read-out: CuCl2 EC50 (amount of CuCl2 in mixture at EC50)
# [15] = mixture with hydrazone compound 16, Hydrazone:Cu ratio 1 to 62.5, read-out: CuCl2 EC50 (amount of CuCl2 in mixture at EC50)
# [16] = mixture with hydrazone compound 16, Hydrazone:Cu ratio 1 to 1000, read-out: CuCl2 EC50 (amount of CuCl2 in mixture at EC50)
smiles,measurement,setting,value
"O.O.[Cl][Cu][Cl] [CuCl2, CuCl2.2H2O, reference compound]",% Control Observed,[1],69%
same,LEPTNO % Inhn. Plus Copper Observed (copper chloride alone),[2],7.1 ± 6.0%
same,% Control of Tomato Late Blight,[3]; CuCl2 10 μM alone,1.7%
same,% Control of Tomato Late Blight,[3]; CuCl2 50 μM alone,8.5%
same,% Control of Tomato Late Blight,[3]; CuCl2 200 μM alone,38.2%
same,% Control of Tomato Late Blight,[3]; CuCl2 400 μM alone,56.0%
same,% Control of Tomato Late Blight,[3]; CuCl2 800 μM alone,70.2%
same,% Inhn attributed to copper chloride alone,[4],4.5 ± 7.9%
same,% Inhn. attributed to copper chloride alone,[5],4.6%
same,% Inhn. attributed to copper chloride alone,[6],3.3%
same,effect of copper chloride alone on growth,[7]; 1 μM,no effect on growth
same,% Inhibition attributed to copper chloride alone,"[7]; CuCl2, 1 μM",0%
same,EC50,[8]; [12],720000 nM
same,EC50,[8]; [13],71 nM
same,EC50,[8]; [14],189 nM
same,EC50,"[8]; mixture with hydrazone compound 16, Hydrazone:Cu ratio 1 to 16, read-out: CuCl2 EC50 (amount of CuCl2 in mixture at EC50)",441 nM
same,EC50,[8]; [15],1040 nM
same,EC50,"[8]; mixture with hydrazone compound 16, Hydrazone:Cu ratio 1 to 250, read-out: CuCl2 EC50 (amount of CuCl2 in mixture at EC50)",1900 nM
same,EC50,[8]; [16],4560 nM
same,% Control Observed,[9],1%
same,% Inhn. attributed to copper chloride alone,[10],11.9%
same,EC50,[11]; [12],118000 nM
same,EC50,[11]; [13],72 nM
same,EC50,[11]; [14],172 nM
same,EC50,[11]; [15],1770 nM
same,EC50,[11]; [16],14000 nM
